What is called IC50 is the concentration that inhibits the measured activity by half. As a reminder, the melting point is the temperature, or range, at which the solid turns liquid.

For data set [1] the following is noted: reported in non-patent reference 14; cited from earlier work.
The subject of data set [2] is ICAM-1 expressed on HUVEC. Put plainly: Test about suppression of ICAM-1 expression (enzyme immuno assay, EIA), TNF-α-stimulated HUVEC. It counts as cell-based. The settings on record: Homo sapiens, TNF-α 0.3 ng/ml. The procedure: Using a culture broth containing serum for vascular endothelial cell (manufactured by Nissui Pharmaceutical Co., Ltd.) as a culture medium, HUVEC (umbilical vein endothelial cell manufactured by Morinaga Bioscience Institute) was cultured in a collagen-treated flask by the routine method.
For carrying out a test about the suppression of ICAM-1 expression with HUVEC, a collagen-treated 96-well plate was used, where HUVEC was added at 1 to 2×10^4 cells/well while the culture medium was added at 100 to 200 μl/well. The cell was cultured in 5% CO2 at 37° C. for 48 to 72 hours. Before adding a test solution, the culture medium (80 μl) was exchanged, to which 10 μl of a test solution preliminarily diluted was then added. The plate was allowed to stand alone in a CO2 incubator. 2 hours later, 10 μl of TNF-α (recombinant human TNF-α, manufactured by Genzyme) was added (to a final concentration of 0.3 ng/ml). The resulting plate was again allowed to stand alone in the CO2 incubator. 16 to 22 hours later, the cell was fixed with 1% p-formaldehyde solution. The cell was rinsed with a phosphate buffer containing Ca^2+ and Mg^2+, which was then treated with an anti-human ICAM-1 antibody (mouse IgG1, manufactured by Kyowa Medics) at ambient temperature for 30 minutes. After the cell was rinsed again with the phosphate buffer, the cell was treated with a peroxide-labeled anti-mouse IgG (H+L) (manufactured by Organon Teknik Corp.) for another 30 minutes. After the cell was again rinsed with the phosphate buffer, the color developed was measured, using a peroxidase chromogenic kit (manufactured by Sumitomo Bakelite Co., Ltd.), to determine ICAM-1 expressed on HUVEC as an expression-inhibiting ratio (%) to a non-drug group to calculate the IC50 value.

A further data set can be described thus: Solubility in solvents. Type of data set: physicochemical. The note with it: methanol, chloroform, acetone, water, hexane.
The subject of data set [3] is footpad thickness, MeHSA-sensitized C57BL/6 mouse. The experiment in a line: Methylated human serum albumin-induced delayed hypersensitivity test (MeHSA-DTH). Type of data set: in vivo. The note with it: oral, twice, footpad thickness 24 hours after induction. The procedure:
Methylated human serum albumin (MeHSA) was dissolved in physiological saline to 5 mg/ml, which was then mixed with an equal volume of the complete Freund's adjuvant (manufactured by Iatron), to prepare an emulsion. Next, 100 μl of the prepared emulsion was injected subcutaneously into a 8-week-old male C57BL/6 mouse, for antigen sensitization. Seven days thereafter, MeHSA was dissolved in physiological saline to 1 mg/ml, which was injected at 25 μl subcutaneously into the footpad of the right hind limb, to trigger a reaction. The thickness of the footpad was measured 24 hours after the induction of the reaction, to calculate the difference from the thickness thereof before the induction of the reaction, to make an assessment. Additionally, drugs were orally given twice, namely one hour before the induction of the reaction and 16 hours after the induction thereof.

Marks after values point to notes of the source that are not given here.

Turning to `COC(=O)/C=C/C=C/[C@@H]1[C@H]2[C@H](C)[C@@H](O)[C@H](C)C[C@@H]2C=C[C@@H]1C` [Coprophilin], the Antibacterial activity result in data set [1] was “has an antibacterial activity”.
In the case of `C/C(=C\C=C\[C@@H]1[C@H]2[C@H](C)[C@@H](O)[C@H](C)C[C@@H]2C=C[C@@H]1C)C(=O)O` [Example 1, (2E,4E)-5-[(1S,2S,4aR,6R,7S,8S,8aS)-7-hydroxy-2,6,8-trimethyl-1,2,4a,5,6,7,8,8a-octahydronaphthalen-1-yl]-2-methylpenta-2,4-dienoic acid], in data set [2], the IC50 was determined as 59 µM. Besides, in “Solubility in solvents”, the Solubility entry is “soluble in methanol, chloroform and acetone but insoluble in water and hexane”.
Regarding `COC(=O)/C(C)=C/C=C/[C@@H]1[C@H]2[C@H](C)[C@@H](O)[C@H](C)C[C@@H]2C=C[C@@H]1C` [Example 2, Methyl (2E,4E)-5-[(1S,2S,4aR,6R,7S,8S,8aS)-7-hydroxy-2,6,8-trimethyl-1,2,4a,5,6,7,8,8a-octahydronaphthalen-1-yl]-2-methylpenta-2,4-dienoate], the melting point lay in the range of 54 to 57 °C. For the same compound, half-maximal inhibition in data set [2] (IC50) was put at 0.67 µM.
For the compound `C/C(=C\C=C\[C@@H]1[C@H]2[C@H](C)[C@@H](O)[C@H](C)C[C@@H]2C=C[C@@H]1C)CO` [Example 3, (2E,4E)-5-[(1S,2S,4aR,6R,7S,8S,8aS)-7-Hydroxy-2,6,8-trimethyl-1,2,4a,5,6,7,8,8a-octahydronaphthalen-1-yl]-2-methylpenta-2,4-dien-1-ol], the concentration for half-maximal inhibition (IC50) in data set [2] was determined as 9.9 µM.
As to `C/C(=C\C=C\[C@@H]1[C@H]2[C@H](C)[C@@H](O)[C@H](C)C[C@@H]2C=C[C@@H]1C)C(=O)NCc1ccncc1` [Example 6, N-(Pyridin-4-ylmethyl)-(2E,4E)-5-[(1S,2S,4aR,6R,7S,8S,8aS)-7-hydroxy-2,6,8-trimethyl-1,2,4a,5,6,7,8,8a-octahydronaphthalen-1-yl]-2-methylpenta-2,4-dienamide], in data set [2], the IC50 turned out to be 0.59 µM. In addition, the “Suppression ratio (%)” value is listed as 27.8* % in data set [3] (10 mg/kg) and 35.7** % in data set [3] (30 mg/kg).
For the compound `C/C(=C\C=C\[C@@H]1[C@H]2[C@H](C)[C@@H](O)[C@H](C)C[C@@H]2C=C[C@@H]1C)C(=O)NCc1ccccn1` [Example 7, N-(Pyridin-2-ylmethyl)-(2E,4E)-5-[(1S,2S,4aR,6R,7S,8S,8aS)-7-hydroxy-2,6,8-trimethyl-1,2,4a,5,6,7,8,8a-octahydronaphthalen-1-yl]-2-methylpenta-2,4-dienamide], the IC50 in data set [2] was determined as 2 µM. In other words, the single-digit micromolar range.
Still for that read-out and setting: in the case of `C/C(=C\C=C\[C@@H]1[C@H]2[C@H](C)[C@@H](O)[C@H](C)C[C@@H]2C=C[C@@H]1C)C(=O)NCc1ccccc1` [Example 8, N-Benzyl-(2E,4E)-5-[(1S,2S,4aR,6R,7S,8S,8aS)-7-hydroxy-2,6,8-trimethyl-1,2,4a,5,6,7,8,8a-octahydronaphthalen-1-yl]-2-methylpenta-2,4-dienamide] it was 0.47 µM.
On to `COc1cccc(CNC(=O)/C(C)=C/C=C/[C@@H]2[C@H]3[C@H](C)[C@@H](O)[C@H](C)C[C@@H]3C=C[C@@H]2C)c1` [Example 9, N-(3-Methoxybenzyl)-(2E,4E)-5-[(1S,2S,4aR,6R,7S,8S,8aS)-7-hydroxy-2,6,8-trimethyl-1,2,4a,5,6,7,8,8a-octahydronaphthalen-1-yl]-2-methylpenta-2,4-dienamide], for which the IC50 in data set [2] worked out at 2.1 µM.
Still for that read-out and setting: then `C/C(=C\C=C\[C@@H]1[C@H]2[C@H](C)[C@@H](O)[C@H](C)C[C@@H]2C=C[C@@H]1C)C(=O)NCc1ccc(Cl)cc1` [Example 10, N-(4-Chlorobenzyl)-(2E,4E)-5-[(1S,2S,4aR,6R,7S,8S,8aS)-7-hydroxy-2,6,8-trimethyl-1,2,4a,5,6,7,8,8a-octahydronaphthalen-1-yl]-2-methylpenta-2,4-dienamide], with 140 µM.
`C/C(=C\C=C\[C@@H]1[C@H]2[C@H](C)[C@@H](O)[C@H](C)C[C@@H]2C=C[C@@H]1C)C(=O)NCc1ccc(C)cc1` [Example 11, N-(4-Methylbenzyl)-(2E,4E)-5-[(1S,2S,4aR,6R,7S,8S,8aS)-7-hydroxy-2,6,8-trimethyl-1,2,4a,5,6,7,8,8a-octahydronaphthalen-1-yl]-2-methylpenta-2,4-dienamide]: in data set [2], the IC50 worked out at 160 µM.
Still for that read-out and setting: in the case of `C/C(=C\C=C\[C@@H]1[C@H]2[C@H](C)[C@@H](O)[C@H](C)C[C@@H]2C=C[C@@H]1C)C(=O)NCCc1ccncc1` [Example 13, N-(Pyridin-4-ylethyl)-(2E,4E)-5-[(1S,2S,4aR,6R,7S,8S,8aS)-7-hydroxy-2,6,8-trimethyl-1,2,4a,5,6,7,8,8a-octahydronaphthalen-1-yl]-2-methylpenta-2,4-dienamide] it was 5.7 µM; in that of `C/C(=C\C=C\[C@@H]1[C@H]2[C@H](C)[C@@H](O)[C@H](C)C[C@@H]2C=C[C@@H]1C)C(=O)NCCc1ccc(O)cc1` [Example 14, N-(4-Hydroxyphenethyl)-(2E,4E)-5-[(1S,2S,4aR,6R,7S,8S,8aS)-7-hydroxy-2,6,8-trimethyl-1,2,4a,5,6,7,8,8a-octahydronaphthalen-1-yl]-2-methylpenta-2,4-dienamide], 15 µM.
Same read-out and setting: in the case of `C/C(=C\C=C\[C@@H]1[C@H]2[C@H](C)[C@@H](O)[C@H](C)C[C@@H]2C=C[C@@H]1C)C(=O)Nc1ccccc1` [Example 16, N-Phenyl-(2E,4E)-5-[(1S,2S,4aR,6R,7S,8S,8aS)-7-hydroxy-2,6,8-trimethyl-1,2,4a,5,6,7,8,8a-octahydronaphthalen-1-yl]-2-methylpenta-2,4-dienamide] it was 15 µM.
On the same count and under the same terms, in the case of `CNC(=O)/C(C)=C/C=C/[C@@H]1[C@H]2[C@H](C)[C@@H](O)[C@H](C)C[C@@H]2C=C[C@@H]1C` [Example 17, N-Methyl-(2E,4E)-5-[(1S,2S,4aR,6R,7S,8S,8aS)-7-hydroxy-2,6,8-trimethyl-1,2,4a,5,6,7,8,8a-octahydronaphthalen-1-yl]-2-methylpenta-2,4-dienamide] it was 2.6 µM; in that of `CCCCNC(=O)/C(C)=C/C=C/[C@@H]1[C@H]2[C@H](C)[C@@H](O)[C@H](C)C[C@@H]2C=C[C@@H]1C` [Example 18, N-(n-Butyl)-(2E,4E)-5-[(1S,2S,4aR,6R,7S,8S,8aS)-7-hydroxy-2,6,8-trimethyl-1,2,4a,5,6,7,8,8a-octahydronaphthalen-1-yl]-2-methylpenta-2,4-dienamide], 2.4 µM; in that of `C/C(=C\C=C\[C@@H]1[C@H]2[C@H](C)[C@@H](O)[C@H](C)C[C@@H]2C=C[C@@H]1C)C(=O)NC(C)(C)C` [Example 19, N-(t-Butyl)-(2E,4E)-5-[(1S,2S,4aR,6R,7S,8S,8aS)-7-hydroxy-2,6,8-trimethyl-1,2,4a,5,6,7,8,8a-octahydronaphthalen-1-yl]-2-methylpenta-2,4-dienamide], 15 µM.
Compound `C/C(=C\C=C\[C@@H]1[C@H]2[C@H](C)[C@@H](O)[C@H](C)C[C@@H]2C=C[C@@H]1C)C(=O)N(C)C` [Example 20, N,N-Dimethyl-(2E,4E)-5-[(1S,2S,4aR,6R,7S,8S,8aS)-7-hydroxy-2,6,8-trimethyl-1,2,4a,5,6,7,8,8a-octahydronaphthalen-1-yl]-2-methylpenta-2,4-dienamide] showed an IC50 in data set [2] of 1.4 µM.
On to `C/C(=C\C=C\[C@@H]1[C@H]2[C@H](C)[C@@H](O)[C@H](C)C[C@@H]2C=C[C@@H]1C)C(=O)N(C)Cc1ccccc1` [Example 21, N-Benzyl-N-methyl-(2E,4E)-5-[(1S,2S,4aR,6R,7S,8S,8aS)-7-hydroxy-2,6,8-trimethyl-1,2,4a,5,6,7,8,8a-octahydronaphthalen-1-yl]-2-methylpenta-2,4-dienamide], for which, in data set [2], the IC50 is 4.9 µM.
Compound `C/C(=C\C=C\[C@@H]1[C@H]2[C@H](C)[C@@H](O)[C@H](C)C[C@@H]2C=C[C@@H]1C)C(N)=O` [Example 22, (2E,4E)-5-[(1S,2S,4aR,6R,7S,8S,8aS)-7-Hydroxy-2,6,8-trimethyl-1,2,4a,5,6,7,8,8a-octahydronaphthalen-1-yl]-2-methylpenta-2,4-dienamide] showed an IC50 in data set [2] of 8.8 µM.
